Measured values from PMC8523698, “Preclinical characterization of an intravenous coronavirus 3CL protease inhibitor for the potential treatment of COVID19” (Nature Communications, 2021).
Where “and” joins values, the source holds several entries; their conditions need not be identical. Equal values may be shown once. Read-outs that look alike come from different tables or passages of the source.

How the values were obtained:
[1] = Plasma protein binding by equilibrium dialysis; conditions: for fraction unbound at 6 h, 5 uM / fraction unbound at 6 h: dog, plasma
CYP3A4/5 [2] = experiment: in vitro; conditions: human, microsomes, pH 7.4, Percent of Control Activity
HKU4-CoV 3CL^pro = HKU4-CoV 3CL^pro (Bat coronavirus HKU4, UniProt P0C6W3); assay type: biochemical; conditions: for Initial Velocity: triplicate, listed as Compound F2
Sequence of HKU4-CoV 3CL^pro (P0C6W3 3292-3597 limits assumed): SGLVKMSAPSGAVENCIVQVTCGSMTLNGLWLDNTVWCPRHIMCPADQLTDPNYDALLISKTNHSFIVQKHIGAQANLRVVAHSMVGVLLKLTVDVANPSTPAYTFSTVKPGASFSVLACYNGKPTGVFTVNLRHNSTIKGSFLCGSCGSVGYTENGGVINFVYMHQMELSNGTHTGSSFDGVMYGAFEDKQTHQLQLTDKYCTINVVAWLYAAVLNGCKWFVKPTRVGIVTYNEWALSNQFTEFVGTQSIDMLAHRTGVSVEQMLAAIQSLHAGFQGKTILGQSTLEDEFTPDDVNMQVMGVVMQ

[3] = PBPK modeling (Simcyp) of DDI with itraconazole
OAT3 = target: T1, OAT3 (Homo sapiens, UniProt Q8TCC7); experiment: Transporter inhibition using transfected HEK293 cells
T1 sequence (Q8TCC7 1-542): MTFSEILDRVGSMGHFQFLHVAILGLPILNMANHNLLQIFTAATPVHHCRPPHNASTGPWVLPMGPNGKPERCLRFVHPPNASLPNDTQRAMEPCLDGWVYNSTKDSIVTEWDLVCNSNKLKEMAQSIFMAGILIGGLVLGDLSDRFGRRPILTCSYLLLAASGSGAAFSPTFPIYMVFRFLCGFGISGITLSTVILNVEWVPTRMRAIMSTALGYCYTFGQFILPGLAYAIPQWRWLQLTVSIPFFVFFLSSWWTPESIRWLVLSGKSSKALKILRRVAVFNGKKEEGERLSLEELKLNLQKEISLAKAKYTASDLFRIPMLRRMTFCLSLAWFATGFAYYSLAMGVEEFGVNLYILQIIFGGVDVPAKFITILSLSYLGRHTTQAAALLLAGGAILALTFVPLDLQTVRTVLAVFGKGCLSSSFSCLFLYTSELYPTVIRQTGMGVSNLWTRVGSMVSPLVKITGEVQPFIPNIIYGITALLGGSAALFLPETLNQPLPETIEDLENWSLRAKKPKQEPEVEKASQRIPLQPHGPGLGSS

OCT2 = target: T2, OCT2 (Homo sapiens, UniProt O15244); experiment: as above
T2 sequence (O15244 1-555): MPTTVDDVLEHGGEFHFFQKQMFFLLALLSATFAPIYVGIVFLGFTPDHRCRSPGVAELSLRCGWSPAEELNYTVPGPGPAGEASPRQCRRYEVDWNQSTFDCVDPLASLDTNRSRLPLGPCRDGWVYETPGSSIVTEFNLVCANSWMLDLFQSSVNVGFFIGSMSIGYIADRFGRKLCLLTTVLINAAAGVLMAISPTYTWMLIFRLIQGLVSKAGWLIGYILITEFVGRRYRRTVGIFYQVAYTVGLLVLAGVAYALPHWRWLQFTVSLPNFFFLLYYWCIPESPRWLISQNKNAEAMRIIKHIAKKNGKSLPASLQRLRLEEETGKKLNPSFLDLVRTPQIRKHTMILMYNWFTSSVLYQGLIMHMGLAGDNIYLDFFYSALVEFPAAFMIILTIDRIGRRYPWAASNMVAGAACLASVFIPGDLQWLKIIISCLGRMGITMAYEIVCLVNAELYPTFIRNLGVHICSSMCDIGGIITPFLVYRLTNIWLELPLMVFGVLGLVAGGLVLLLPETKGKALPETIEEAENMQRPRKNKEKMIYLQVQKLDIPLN

CYP3A4/5 [4] = target: CYP3A4/5 (Homo sapiens, UniProt P08684); experiment: Reversible CYP inhibition in human liver microsomes
Sequence of CYP3A4/5 (Homo sapiens, UniProt P08684) (P08684 whole entry): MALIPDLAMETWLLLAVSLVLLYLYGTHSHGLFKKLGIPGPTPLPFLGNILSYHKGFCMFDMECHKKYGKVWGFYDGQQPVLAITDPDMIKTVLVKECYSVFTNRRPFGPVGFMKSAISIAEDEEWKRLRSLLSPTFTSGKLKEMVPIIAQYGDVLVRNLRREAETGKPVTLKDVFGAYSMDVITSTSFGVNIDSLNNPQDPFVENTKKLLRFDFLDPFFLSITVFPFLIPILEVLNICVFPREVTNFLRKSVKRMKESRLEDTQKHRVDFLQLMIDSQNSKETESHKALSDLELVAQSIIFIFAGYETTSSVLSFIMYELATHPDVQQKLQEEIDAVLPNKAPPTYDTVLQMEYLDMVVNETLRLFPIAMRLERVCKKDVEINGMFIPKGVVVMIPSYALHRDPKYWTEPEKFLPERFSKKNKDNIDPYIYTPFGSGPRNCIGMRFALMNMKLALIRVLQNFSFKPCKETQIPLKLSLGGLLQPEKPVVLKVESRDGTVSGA

[5] = CYP 3A4/5 (mdz), 30-Minute Preincubation
[6] = CYP 3A4/5 (mdz), Zero-Minute Preincubation
[7] = CYP 3A4/5 (tst), 30-Minute Preincubation
[8] = CYP 3A4/5 (tst), Zero-Minute Preincubation

With COc1cccc2[nH]c(C(=O)N[C@@H](CC(C)C)C(=O)N[C@@H](C[C@@H]3CCNC3=O)C(=O)CO)cc12 [PF-00835231] the fraction unbound at 6 h, 5 uM ([1]; Beagle, pH 7.4, Fraction unbound, Geomean, Dog plasma, 5.0 uM, n 12) was 0.416, the fraction unbound at 6 h, 5 uM ([1]; Beagle, pH 7.4, Individual fraction unbound, Dog Beagle plasma, 5.0 uM, replicates Day 1-3) was 0.401 and the Individual fraction unbound ([1]; Dog Beagle plasma, 5.0 uM, replicates Day 1-3) was 0.386 and 0.435 and 0.45 and 0.406 and 0.488 and 0.451 and 0.403 and 0.342 and 0.444 and 0.382 and 0.419. It also gave a fraction unbound at 6 h ([1]; pH 7.4, Plasma fu, Vdss input) of 0.416, a fraction unbound at 6 h ([1]; pH 7.4, Unbound fraction fu (%CV), dog plasma) of 0.416 and a fraction unbound at 6 h, 5 uM ([1]; pH 7.4, fraction unbound Geomean, dog plasma, 5.0 uM, n=12) of 0.416. The activity at 0.1 µM (CYP3A4/5 [2]; CYP 3A4/5 (mdz), 0.1 µM, 30-Minute Preincubation) was 97.8%, the activity at 0.1 µM (CYP3A4/5 [2]; CYP 3A4/5 (mdz), 0.1 µM, Zero-Minute Preincubation) was 95.2% and the activity at 0.214 µM (CYP3A4/5 [2]; CYP 3A4/5 (mdz), 0.214 µM, 30-Minute Preincubation) was 121%. It also gave an activity at 0.214 µM (CYP3A4/5 [2]; CYP 3A4/5 (mdz), 0.214 µM, Zero-Minute Preincubation) of 98.7%, an activity at 0.979 µM (CYP3A4/5 [2]; CYP 3A4/5 (mdz), 0.979 µM, 30-Minute Preincubation) of 99.8% and an activity at 0.979 µM (CYP3A4/5 [2]; CYP 3A4/5 (mdz), 0.979 µM, Zero-Minute Preincubation) of 95.5%. It also gave an activity at 2.09 µM (CYP3A4/5 [2]; CYP 3A4/5 (mdz), 2.09 µM, 30-Minute Preincubation) of 99.7%, an activity at 2.09 µM (CYP3A4/5 [2]; CYP 3A4/5 (mdz), 2.09 µM, Zero-Minute Preincubation) of 97.6% and an activity at 4.48 µM (CYP3A4/5 [2]; [5]) of 101%. The activity at 4.48 µM (CYP3A4/5 [2]; [6]) was 110%, the activity at 20.5 µM (CYP3A4/5 [2]; [5]) was 88.2% and the activity at 20.5 µM (CYP3A4/5 [2]; [6]) was 108%. The activity at 43.8 µM (CYP3A4/5 [2]; [5]) was 77.3%, the activity at 43.8 µM (CYP3A4/5 [2]; [6]) was 101% and the activity at 93.5 µM (CYP3A4/5 [2]; [5]) was 64.9%. The activity at 93.5 µM (CYP3A4/5 [2]; [6]) was 107%, the activity at 200 µM (CYP3A4/5 [2]; [6]) was 104% and the activity at 30 min, 0.1 µM (CYP3A4/5 [2]; CYP 3A4/5 (tst), 0.1 µM, 30-Minute Preincubation) was 87.1%. For the same compound, the activity at 0.1 µM (CYP3A4/5 [2]; CYP 3A4/5 (tst), 0.1 µM, Zero-Minute Preincubation) was 103%, the activity at 0 min, 0.214 µM (CYP3A4/5 [2]; CYP 3A4/5 (tst), 0.214 µM, Zero-Minute Preincubation) was 102% and the activity at 30 min, 0.979 µM (CYP3A4/5 [2]; CYP 3A4/5 (tst), 0.979 µM, 30-Minute Preincubation) was 97.6%. The activity at 0 min, 2.09 µM (CYP3A4/5 [2]; CYP 3A4/5 (tst), 2.09 µM, Zero-Minute Preincubation) was 98.1%, the activity at 4.48 µM (CYP3A4/5 [2]; [7]) was 101% and the activity at 20.5 µM (CYP3A4/5 [2]; [7]) was 83.2%. The activity at 20.5 µM (CYP3A4/5 [2]; [8]) was 75.8%, the activity at 43.8 µM (CYP3A4/5 [2]; [7]) was 55.5% and the activity at 43.8 µM (CYP3A4/5 [2]; [8]) was 79.9%. The activity at 93.5 µM (CYP3A4/5 [2]; [8]) was 74.9%, the activity at 200 µM (CYP3A4/5 [2]; [7]) was 24.3% and the “Initial Velocity” value (HKU4-CoV 3CL^pro; [Compound F2] 1.95312 nM) was 0.9709 and 0.9956 and 0.9685. For the same compound, the “Initial Velocity” value (HKU4-CoV 3CL^pro; [Compound F2] 3.90625 nM) was 0.9706 and 0.9741 and 0.9413, the “Initial Velocity” value (HKU4-CoV 3CL^pro; [Compound F2] 7.8125 nM) was 0.919 and 0.9344 and 0.9288 and the “Initial Velocity” value (HKU4-CoV 3CL^pro; [Compound F2] 20 nM) was 0.7972 and 0.7875 and 0.7775. The “Initial Velocity” value (HKU4-CoV 3CL^pro; [Compound F2] 30 nM) was 0.5859 and 0.5869 and 0.5914, the “Initial Velocity” value (HKU4-CoV 3CL^pro; [Compound F2] 40 nM) was 0.342 and 0.3124 and 0.3465 and the “Initial Velocity” value (HKU4-CoV 3CL^pro; [Compound F2] 50 nM) was 0.1072 and 0.09971 and 0.1255. The “Initial Velocity” value (HKU4-CoV 3CL^pro; [Compound F2] 60 nM) was 0.03996 and 0.02999 and 0.0446, the “Initial Velocity” value (HKU4-CoV 3CL^pro; [Compound F2] 80 nM) was 0.0186 and 0.01858 and 0.02101 and the “Initial Velocity” value (HKU4-CoV 3CL^pro; [Compound F2] 100 nM) was 0.01432 and 0.02363 and 0.01328. For the same compound, the “Initial Velocity” value (HKU4-CoV 3CL^pro; [Compound F2] 400 nM) was 0.004976 and 0.003329 and 0.004577, the Ki (HKU4-CoV 3CL^pro; mean ± SEM) was 0.034 ± 0.079 nM and the “fm,CYP3A” value ([3]; Predicted from in vitro phenotyping data) was 0.76. For the same compound, the CLint ([3]; Simcyp elimination input, Recombinant, CYP3A4, Pathway 1) was 0.147 µL/min/pmol, the CL renal ([3]; human) was 50 mL/min and the clearance ([3]; human, plasma) was 417 mL/min. For the same compound, the CC50 (in vitro; African green monkey, CC50) was > 100 µM, the CC50 (in vitro; African green monkey, CC50, n=1) was > 50 µM and the CC50 (in vitro; monkey, CC50) was > 50 µM. For the same compound, the CC50 (in vitro; monkey, CC50, n=1) was > 50 µM, the CC50 (in vitro; monkey, CC50 GeoMean (95% CI)) was > 100 µM and the IC50 (OAT3) was > 300 µM. The IC50 (OAT3; human, HEK293 cells transfected with OAT3, pH 7.4, probe [3H] estrone-3-sulfate (0.1 µM)) was > 20 µM, the IC50 (OCT2) was > 300 µM and the IC50 (OCT2; human, HEK293 cells stably transfected with OCT2, pH 7.4, probe [14C]-metformin (20 µM)) was > 20 µM. The Ki (CYP3A4/5 [4]) was 108 µM.
